# “And” between values parts separate entries of the source, which are not always exact repeats. Equal values may be shown once. Results filed as inconclusive are left out.
# Test system: Lewis lung carcinoma i.m., BDF1 mice, T/C %
# Assay: NCI In Vivo Anticancer Drug Screen. Data for tumor model Lewis Lung Carcinoma (intramuscular) in B6D2F1 (BDF1) mice
# How it was run: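 Antitumour activity is assessed in transplanted-tumour mice. Endpoint is survival or tumour size, normalised to vehicle-dosed controls (T/C).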
smiles,measurement,setting,value
CCc1nc(N)nc(N)c1-c1ccc(Cl)cc1,T/C,"endpoint: mean tumor weight, dose: 64.0 mg/kg/injection, schedule: Q01DX009 (ip), vehicle: Klucel (hydroxypropylcellulose) (HPC), higher = larger tumour",26 % of control
same,T/C,"endpoint: mean tumor weight, dose: 64.0 mg/kg/injection, schedule: Q01DX009 (sc), vehicle: Klucel (hydroxypropylcellulose) (HPC), higher = larger tumour",41 % of control
same,T/C,"endpoint: mean tumor weight, dose: 64.0 mg/kg/injection, schedule: Q04DX003 (ip), vehicle: Klucel (hydroxypropylcellulose) (HPC), higher = larger tumour",70 % of control and 93 % of control
same,T/C,"endpoint: mean tumor weight, dose: 64.0 mg/kg/injection, schedule: Q08DX002 (ip), vehicle: Klucel (hydroxypropylcellulose) (HPC), higher = larger tumour",72 % of control and 81 % of control
same,T/C,"endpoint: mean tumor weight, dose: 128.0 mg/kg/injection, schedule: Q01DX001 (ip), vehicle: Klucel (hydroxypropylcellulose) (HPC), higher = larger tumour",81 % of control
same,T/C,"endpoint: mean tumor weight, dose: 128.0 mg/kg/injection, schedule: Q01DX001 (oral), vehicle: Klucel (hydroxypropylcellulose) (HPC), higher = larger tumour",82 % of control
same,T/C,"endpoint: mean tumor weight, dose: 128.0 mg/kg/injection, schedule: Q01DX001 (sc), vehicle: Klucel (hydroxypropylcellulose) (HPC), higher = larger tumour",50 % of control
same,T/C,"endpoint: mean tumor weight, dose: 128.0 mg/kg/injection, schedule: Q04DX003 (ip), vehicle: Klucel (hydroxypropylcellulose) (HPC), higher = larger tumour",71 % of control
same,T/C,"endpoint: median survival time, dose: 2.0 mg/kg/injection, schedule: Q06HX008 (ip), vehicle: Klucel (hydroxypropylcellulose) (HPC), higher = longer survival",92 % of control
same,T/C,"endpoint: median survival time, dose: 4.0 mg/kg/injection, schedule: Q01DX009 (ip), vehicle: Klucel (hydroxypropylcellulose) (HPC), higher = longer survival",95 % of control
same,T/C,"endpoint: median survival time, dose: 4.0 mg/kg/injection, schedule: Q01DX009 (sc), vehicle: Klucel (hydroxypropylcellulose) (HPC), higher = longer survival",100 % of control
same,T/C,"endpoint: median survival time, dose: 4.0 mg/kg/injection, schedule: Q06HX004 (ip), vehicle: Klucel (hydroxypropylcellulose) (HPC), higher = longer survival",107 % of control
same,T/C,"endpoint: median survival time, dose: 4.0 mg/kg/injection, schedule: Q06HX008 (ip), vehicle: Klucel (hydroxypropylcellulose) (HPC), higher = longer survival",88 % of control and 104 % of control
same,T/C,"endpoint: median survival time, dose: 8.0 mg/kg/injection, schedule: Q01DX001 (sc), vehicle: Klucel (hydroxypropylcellulose) (HPC), higher = longer survival",104 % of control
same,T/C,"endpoint: median survival time, dose: 8.0 mg/kg/injection, schedule: Q01DX009 (ip), vehicle: Klucel (hydroxypropylcellulose) (HPC), higher = longer survival",104 % of control
same,T/C,"endpoint: median survival time, dose: 8.0 mg/kg/injection, schedule: Q01DX009 (oral), vehicle: Klucel (hydroxypropylcellulose) (HPC), higher = longer survival",104 % of control
same,T/C,"endpoint: median survival time, dose: 8.0 mg/kg/injection, schedule: Q04DX003 (ip), vehicle: Klucel (hydroxypropylcellulose) (HPC), higher = longer survival",94 % of control
same,T/C,"endpoint: median survival time, dose: 8.0 mg/kg/injection, schedule: Q06HX004 (ip), vehicle: Klucel (hydroxypropylcellulose) (HPC), higher = longer survival",109 % of control
same,T/C,"endpoint: median survival time, dose: 8.0 mg/kg/injection, schedule: Q06HX008 (ip), vehicle: Klucel (hydroxypropylcellulose) (HPC), higher = longer survival",100 % of control
same,T/C,"endpoint: median survival time, dose: 8.0 mg/kg/injection, schedule: Q06HX012 (ip), vehicle: Klucel (hydroxypropylcellulose) (HPC), higher = longer survival",107 % of control
same,T/C,"endpoint: median survival time, dose: 8.0 mg/kg/injection, schedule: Q08DX002 (ip), vehicle: Klucel (hydroxypropylcellulose) (HPC), higher = longer survival",94 % of control
same,T/C,"endpoint: median survival time, dose: 12.5 mg/kg/injection, schedule: Q01DX011 (ip), vehicle: steriod suspending solution, higher = longer survival",103 % of control
same,T/C,"endpoint: median survival time, dose: 16.0 mg/kg/injection, schedule: Q01DX001 (ip), vehicle: Klucel (hydroxypropylcellulose) (HPC), higher = longer survival",100 % of control
same,T/C,"endpoint: median survival time, dose: 16.0 mg/kg/injection, schedule: Q01DX001 (sc), vehicle: Klucel (hydroxypropylcellulose) (HPC), higher = longer survival",96 % of control
same,T/C,"endpoint: median survival time, dose: 16.0 mg/kg/injection, schedule: Q01DX009 (ip), vehicle: Klucel (hydroxypropylcellulose) (HPC), higher = longer survival",108 % of control
same,T/C,"endpoint: median survival time, dose: 16.0 mg/kg/injection, schedule: Q01DX009 (oral), vehicle: Klucel (hydroxypropylcellulose) (HPC), higher = longer survival",100 % of control
same,T/C,"endpoint: median survival time, dose: 16.0 mg/kg/injection, schedule: Q01DX009 (sc), vehicle: Klucel (hydroxypropylcellulose) (HPC), higher = longer survival",109 % of control
same,T/C,"endpoint: median survival time, dose: 16.0 mg/kg/injection, schedule: Q04DX003 (ip), vehicle: Klucel (hydroxypropylcellulose) (HPC), higher = longer survival",92 % of control and 100 % of control
same,T/C,"endpoint: median survival time, dose: 16.0 mg/kg/injection, schedule: Q06HX008 (ip), vehicle: Klucel (hydroxypropylcellulose) (HPC), higher = longer survival",98 % of control
same,T/C,"endpoint: median survival time, dose: 32.0 mg/kg/injection, schedule: Q01DX001 (ip), vehicle: Klucel (hydroxypropylcellulose) (HPC), higher = longer survival",102 % of control
same,T/C,"endpoint: median survival time, dose: 32.0 mg/kg/injection, schedule: Q01DX001 (oral), vehicle: Klucel (hydroxypropylcellulose) (HPC), higher = longer survival",104 % of control
same,T/C,"endpoint: median survival time, dose: 32.0 mg/kg/injection, schedule: Q01DX001 (sc), vehicle: Klucel (hydroxypropylcellulose) (HPC), higher = longer survival",104 % of control
same,T/C,"endpoint: median survival time, dose: 32.0 mg/kg/injection, schedule: Q04DX003 (ip), vehicle: Klucel (hydroxypropylcellulose) (HPC), higher = longer survival",92 % of control
same,T/C,"endpoint: median survival time, dose: 32.0 mg/kg/injection, schedule: Q08DX002 (ip), vehicle: Klucel (hydroxypropylcellulose) (HPC), higher = longer survival",86 % of control and 102 % of control
same,T/C,"endpoint: median survival time, dose: 64.0 mg/kg/injection, schedule: Q01DX001 (oral), vehicle: Klucel (hydroxypropylcellulose) (HPC), higher = longer survival",104 % of control
same,T/C,"endpoint: median survival time, dose: 64.0 mg/kg/injection, schedule: Q01DX001 (sc), vehicle: Klucel (hydroxypropylcellulose) (HPC), higher = longer survival",90 % of control and 100 % of control
same,T/C,"endpoint: median survival time, dose: 64.0 mg/kg/injection, schedule: Q01DX009 (sc), vehicle: Klucel (hydroxypropylcellulose) (HPC), higher = longer survival",104 % of control
same,T/C,"endpoint: median survival time, dose: 64.0 mg/kg/injection, schedule: Q04DX003 (ip), vehicle: Klucel (hydroxypropylcellulose) (HPC), higher = longer survival",96 % of control and 109 % of control
same,T/C,"endpoint: median survival time, dose: 128.0 mg/kg/injection, schedule: Q01DX001 (ip), vehicle: Klucel (hydroxypropylcellulose) (HPC), higher = longer survival",107 % of control
same,T/C,"endpoint: median survival time, dose: 128.0 mg/kg/injection, schedule: Q01DX001 (oral), vehicle: Klucel (hydroxypropylcellulose) (HPC), higher = longer survival",102 % of control

# Source: PubChem BioAssay AID272 (DTP/NCI, 2004)
